Patent US5552552A, “Crystalline salts of optically active aminocoumaran derivatives, their production and use” (Takeda Chemical Industries, Ltd., priority 1992, dated 1996)
Structures can show the parent of a compound that is named as a salt.

What was measured:
[1] = tested on: behavioral change induced by spinal intrathecal injection of FeCl2 (ferrous chloride); assay: Change of behavior induced by spinal intrathecal injection of FeCl2 in mice; format: in vivo, male Slc:ICR mice (printed "SIc: IcR mice"); details: 25 mg/kg oral; for Mean Score, 25 mg/kg Administered: behavior observed 15 min to 1 h after intrathecal 50 mM FeCl2, 5 μl/mouse, 10 mice per group, score 0 (normal) to 5 (death); for Percent Suppression (%): calculated from the mean behavioral scores, FeCl2 intrathecal, mice
Description: Effect on drugs on the change of behavior induced by spinal in intrathecal injection of FeCl2 in mice.
Male SIc: IcR mice (5 weeks) (10 mice per group) were used. […] The following criteria were used to score behavioral changes.
1: Frequent bites to lower limbs and lower abdomen.
2: One of the following three responses is seen: a) Violent bites to lower half of body, with occasionally rolling b) Hypersensitive aggressive behavior in response to external stimulation […]
4: Tonic convulsion, or unilateral or bilateral limb paralysis […]
Percent inhibitions were calculated from the scores obtained as above (percent inhibition=[(5-score)/5]×100). The subject compound salt was orally administered during the 30-minute period following administration of ferrous chloride.

[2] = Stability / hygroscopicity (no method); format: physicochemical; details: in words; derivative (B), racemate; no data
[3] = in words; free form (racemate), as described in EP-A-0483772; cited from earlier work

SMILES	Mean Score, 25 mg/kg Administered [1]	Percent Suppression (%) [1]	hygroscopicity and stability [2]	water solubility of the free form [3]
Cc1c(C)c2c(c(C)c1N)C[C@@](C)(CN1CCC(c3ccccc3)CC1)O2 [Example 3, (S)--(+)-5-amino-2,4,6,7-tetramethyl-2-(4-phenylpiperidinomethyl)-2,3-dihydrobenzo [b]furan dihydrochloride]	0.2	96%	–	–
Cc1c(C)c2c(c(C)c1N)CC(C)(CN1CCC(c3ccccc3)CC1)O2 (racemic) [Derivative (B), 5-amino-2,4,6,7-tetramethyl-2-(4-phenylpiperidinomethyl)-2,3-dihydrobenzo[b]furan]	–	–	hygroscopic and hence unstable	sparingly water-soluble
Cc1c(C)c2c(c(C)c1N)C[C@](C)(CN1CCC(c3ccccc3)CC1)O2 [Example 4, (R)--(-)-5-amino-2,4,6,7-tetramethyl-2-(4-phenylpiperidinomethyl)-2,3-dihydrobenzo [b]furan dihydrochloride]	1.3	72.3%	–	–
